Earlier results on 1 compound are cited in patent EP0699249B1, “METHODS FOR TREATING NON-COTTON-CONTAINING FABRICS WITH CELLULASE” (GENENCOR INTERNATIONAL, INC., priority 1994, dated 1995).

The target of this data set is CBH I and CBH II from Trichoderma longibrachiatum. The settings on record: competitive inhibition of CBH components.

For orientation: Ki means a dissociation constant, usually derived from enzyme kinetics or from competition with a known ligand. In the case of `O=C[C@H](O)[C@@H](O)[C@H](O[C@@H]1O[C@H](CO)[C@@H](O)[C@H](O)[C@H]1O)[C@H](O)CO` [cellobiose], the Ki is about 1 mM.
